The subject of data set [1] is Escherichia coli. The experiment in a line: Antimicrobial activity against Escherichia coli ATCC 25922 assessed as reduction in microbial growth measured after 24 hrs by CLSI based broth microdilution method. In kind it is functional. On the technique in general: Broth dilution looks for growth in wells or tubes with falling amounts of substance.
For data set [2], the system named is Erythrocyte. Description: Hemolytic activity in human erythrocytes incubated for 1 hr by ELISA reader analysis. In kind it is toxicity, cell-based.

Square brackets hold non-standard residues; d marks the D form. Peptide text beside a SMILES is read from it. 2Nal = N[C@@H](Cc1ccc2ccccc2c1)C(=O)O; Cha = N[C@@H](CC1CCCCC1)C(=O)O; Aoc(2) = CCCCCC[C@H](N)C(=O)O; hLeu = CC(C)CC[C@H](N)C(=O)O; hSer = N[C@@H](CCO)C(=O)O; Nle = CCCC[C@H](N)C(=O)O; Nva = CCC[C@H](N)C(=O)O Where only a bound is given, the exact number is not on record here.

One may read the MIC as the lowest concentration that inhibits growth of the organism. As for `CC[C@H](C)[C@H](NC(=O)[C@H](CCCNC(=N)N)NC(=O)[C@H](CCO)NC(=O)[C@H](CC(C)C)NC(=O)[C@H](CC(C)C)NC(=O)CN)C(=O)N[C@@H](CCCCN)C(=O)N[C@H](C(=O)N[C@@H](CC(C)C)C(=O)N[C@@H](CC(C)C)C(N)=O)[C@@H](C)O` (H-GLL[hSer]RIKTLL-NH2), the MIC in data set [1] worked out at 150 µM. In data set [2], this compound had an HC10 of over 500 µM.

On to `CC[C@H](C)[C@H](NC(=O)[C@H](CCCNC(=N)N)NC(=O)[C@H](CCCCN)NC(=O)[C@H](CCSC)NC(=O)[C@H](CC(C)C)NC(=O)CN)C(=O)N[C@@H](CCCCN)C(=O)N[C@H](C(=O)N[C@@H](CCSC)C(=O)N[C@@H](CC(C)C)C(N)=O)[C@@H](C)O` (H-GLMKRIKTML-NH2), for which the MIC in data set [1] was over 200 µM. In data set [2], this compound came in with an HC10 of over 500 µM.

As for `CCC[C@H](NC(=O)[C@H](CC(C)C)NC(=O)CN)C(=O)N[C@@H](CCCCN)C(=O)N[C@@H](CCCNC(=N)N)C(=O)N[C@@H](Cc1ccc2ccccc2c1)C(=O)N[C@@H](CCCCN)C(=O)N[C@H](C(=O)N[C@@H](CCC)C(=O)N[C@@H](CC(C)C)C(N)=O)[C@@H](C)O` (H-GL[Nva]KR[2Nal]KT[Nva]L-NH2), the MIC in data set [1] stood at 100 µM. The compound also came in with an HC10 in data set [2] of over 500 µM.

On to `CC[C@H](C)[C@H](NC(=O)[C@H](CCCNC(=N)N)NC(=O)[C@H](CCCCN)NC(=O)[C@H](CC(C)C)NC(=O)[C@H](CCSC)NC(=O)CN)C(=O)N[C@@H](CCCCN)C(=O)N[C@H](C(=O)N[C@@H](CC(C)C)C(=O)N[C@@H](CC(C)C)C(N)=O)[C@@H](C)O` (H-GMLKRIKTLL-NH2), for which, in data set [1], the MIC amounted to 200 µM. Moreover, the HC10 in data set [2] came to 400 µM.

Consider `CC[C@H](C)[C@H](NC(=O)[C@H](CCCNC(=N)N)NC(=O)[C@H](CCCCN)NC(=O)[C@H](CC(C)C)NC(=O)[C@H](CCSC)NC(=O)CN)C(=O)N[C@@H](CCCCN)C(=O)N[C@H](C(=O)N[C@@H](CC(C)C)C(=O)N[C@@H](CCSC)C(N)=O)[C@@H](C)O` (H-GMLKRIKTLM-NH2), for which the MIC in data set [1] is over 200 µM. The compound also registered an HC10 in data set [2] of 500 µM.

Take `CC[C@H](C)[C@H](NC(=O)[C@H](CCCNC(=N)N)NC(=O)[C@H](CCCCN)NC(=O)[C@H](CCSC)NC(=O)[C@H](CCSC)NC(=O)CN)C(=O)N[C@@H](CCCCN)C(=O)N[C@H](C(=O)N[C@@H](CCSC)C(=O)N[C@@H](CCSC)C(N)=O)[C@@H](C)O` (H-GMMKRIKTMM-NH2): the MIC in data set [1] is over 200 µM. In data set [2], this compound registered an HC10 of over 500 µM.

As for `CC[C@H](C)[C@H](NC(=O)[C@H](CCCNC(=N)N)NC(=O)[C@H](CCCCN)NC(=O)[C@H](CC(C)C)NC(=O)[C@H](COC)NC(=O)CN)C(=O)N[C@@H](CCCCN)C(=O)N[C@H](C(=O)N[C@@H](CC(C)C)C(=O)N[C@@H](CC(C)C)C(N)=O)[C@@H](C)O` (H-GS(Me)LKRIKTLL-NH2), the MIC in data set [1] was over 200 µM. Further, in data set [2], the HC10 was over 500 µM.

As to `CC[C@H](C)[C@H](NC(=O)[C@H](CCCNC(=N)N)NC(=O)[C@H](CCCCN)NC(=O)[C@H](CC(C)C)NC(=O)[C@H](COC)NC(=O)CN)C(=O)N[C@@H](CCCCN)C(=O)N[C@H](C(=O)N[C@@H](CC(C)C)C(=O)N[C@@H](COC)C(N)=O)[C@@H](C)O` (H-GS(Me)LKRIKTLS(Me)-NH2), in data set [1], the MIC was over 200 µM. For the same compound, the HC10 in data set [2] is over 500 µM.

For the compound `CC[C@H](C)[C@H](NC(=O)[C@H](CCCNC(=N)N)NC(=O)[C@H](CCCCN)NC(=O)[C@H](COC)NC(=O)[C@H](COC)NC(=O)CN)C(=O)N[C@@H](CCCCN)C(=O)N[C@H](C(=O)N[C@@H](COC)C(=O)N[C@@H](COC)C(N)=O)[C@@H](C)O` (H-GS(Me)S(Me)KRIKTS(Me)S(Me)-NH2), the MIC in data set [1] was found to be 12.5 µM. The compound further gave an HC10 in data set [2] of over 500 µM.

On to `CC[C@H](C)[C@H](NC(=O)[C@H](CCCNC(=N)N)NC(=O)[C@H](CCCCN)NC(=O)[C@H](CC(C)C)NC(=O)[C@@H](NC(=O)CN)C(C)C)C(=O)N[C@@H](CCCCN)C(=O)N[C@H](C(=O)N[C@@H](CC(C)C)C(=O)N[C@H](C(N)=O)C(C)C)[C@@H](C)O` (H-GVLKRIKTLV-NH2), for which the MIC in data set [1] is over 200 µM. In data set [2], the HC10 was over 500 µM.

In the case of `CC[C@H](C)[C@H](NC(=O)[C@H](CCCNC(=N)N)NC(=O)[C@H](CCCCN)NC(=O)[C@@H](NC(=O)[C@@H](NC(=O)CN)C(C)C)C(C)C)C(=O)N[C@@H](CCCCN)C(=O)N[C@H](C(=O)N[C@H](C(=O)N[C@H](C(N)=O)C(C)C)C(C)C)[C@@H](C)O` (H-GVVKRIKTVV-NH2), the MIC in data set [1] was over 200 µM. Also, the HC10 in data set [2] is over 500 µM.

For `CC[C@H](C)[C@H](NC(=O)[C@H](CCCNC(=N)N)NC(=O)[C@H](CCCCN)NC(=O)[C@H](Cc1ccc2ccccc2c1)NC(=O)CN)C(=O)N[C@@H](CCCCN)C(=O)N[C@H](C(=O)N[C@@H](CC(C)C)C(=O)N[C@@H](CC(C)C)C(N)=O)[C@@H](C)O` (H-G[2Nal]KRIKTLL-NH2), in data set [1], the MIC was found to be 6.25 µM. The compound further had an HC10 in data set [2] of 300 µM.

Turning to `CCCCCC[C@H](NC(=O)[C@H](CC(C)C)NC(=O)[C@@H](NC(=O)[C@H](CCCCN)NC(=O)[C@@H](NC(=O)[C@H](CCCNC(=N)N)NC(=O)[C@H](CCCCN)NC(=O)[C@H](CC(C)C)NC(=O)[C@H](CCCCCC)NC(=O)CN)[C@@H](C)CC)[C@@H](C)O)C(N)=O` (H-G[Aoc(2)]LKRIKTL[Aoc(2)]-NH2), the minimal inhibitory concentration (MIC) in data set [1] came out at 6.25 µM. In addition, the HC10 in data set [2] was 71 µM.

With `CC[C@H](C)[C@H](NC(=O)[C@H](CCCNC(=N)N)NC(=O)[C@H](CCCCN)NC(=O)[C@H](CC(C)C)NC(=O)[C@H](CC1CCCCC1)NC(=O)CN)C(=O)N[C@@H](CCCCN)C(=O)N[C@H](C(=O)N[C@@H](CC1CCCCC1)C(=O)N[C@@H](CC(C)C)C(N)=O)[C@@H](C)O` (H-G[Cha]LKRIKT[Cha]L-NH2), the MIC in data set [1] was 12.5 µM. The same compound yielded an HC10 in data set [2] of 120 µM.

Consider `CCCC[C@H](NC(=O)[C@H](CC(C)C)NC(=O)[C@@H](NC(=O)[C@H](CCCCN)NC(=O)[C@@H](NC(=O)[C@H](CCCNC(=N)N)NC(=O)[C@H](CCCCN)NC(=O)[C@H](CC(C)C)NC(=O)[C@H](CCCC)NC(=O)CN)[C@@H](C)CC)[C@@H](C)O)C(N)=O` (H-G[Nle]LKRIKTL[Nle]-NH2), for which the MIC in data set [1] was 100 µM. The compound also showed an HC10 in data set [2] of over 500 µM.

For the compound `CCCC[C@H](NC(=O)[C@H](CCCC)NC(=O)[C@@H](NC(=O)[C@H](CCCCN)NC(=O)[C@@H](NC(=O)[C@H](CCCNC(=N)N)NC(=O)[C@H](CCCCN)NC(=O)[C@H](CCCC)NC(=O)[C@H](CCCC)NC(=O)CN)[C@@H](C)CC)[C@@H](C)O)C(N)=O` (H-G[Nle][Nle]KRIKT[Nle][Nle]-NH2), in data set [1], the MIC was 100 µM. In data set [2], this compound came in with an HC10 of over 500 µM.

Consider `CCC[C@H](NC(=O)[C@H](CC(C)C)NC(=O)[C@@H](NC(=O)[C@H](CCCCN)NC(=O)[C@@H](NC(=O)[C@H](CCCNC(=N)N)NC(=O)[C@H](CCCCN)NC(=O)[C@H](CC(C)C)NC(=O)[C@H](CCC)NC(=O)CN)[C@@H](C)CC)[C@@H](C)O)C(N)=O` (H-G[Nva]LKRIKTL[Nva]-NH2), for which the MIC in data set [1] is over 200 µM. The compound also had an HC10 in data set [2] of over 500 µM.

For the compound `CCC[C@H](NC(=O)[C@H](CC(C)C)NC(=O)[C@@H](NC(=O)[C@H](CCCCN)NC(=O)[C@H](Cc1ccc2ccccc2c1)NC(=O)[C@H](CCCNC(=N)N)NC(=O)[C@H](CCCCN)NC(=O)[C@H](CC(C)C)NC(=O)[C@H](CCC)NC(=O)CN)[C@@H](C)O)C(N)=O` (H-G[Nva]LKR[2Nal]KTL[Nva]-NH2), the MIC in data set [1] amounted to 100 µM. The compound further gave an HC10 in data set [2] of over 500 µM.

Consider `CCC[C@H](NC(=O)[C@H](CCC)NC(=O)[C@@H](NC(=O)[C@H](CCCCN)NC(=O)[C@@H](NC(=O)[C@H](CCCNC(=N)N)NC(=O)[C@H](CCCCN)NC(=O)[C@H](CCC)NC(=O)[C@H](CCC)NC(=O)CN)[C@@H](C)CC)[C@@H](C)O)C(N)=O` (H-G[Nva][Nva]KRIKT[Nva][Nva]-NH2), for which, in data set [1], the MIC is over 200 µM. Also, the HC10 in data set [2] is over 500 µM.

In the case of `CCC[C@H](NC(=O)[C@H](CCC)NC(=O)[C@@H](NC(=O)[C@H](CCCCN)NC(=O)[C@H](Cc1ccc2ccccc2c1)NC(=O)[C@H](CCCNC(=N)N)NC(=O)[C@H](CCCCN)NC(=O)[C@H](CCC)NC(=O)[C@H](CCC)NC(=O)CN)[C@@H](C)O)C(N)=O` (H-G[Nva][Nva]KR[2Nal]KT[Nva][Nva]-NH2), in data set [1], the MIC was over 200 µM. In addition, the HC10 in data set [2] is over 500 µM.

For the compound `CC[C@H](C)[C@H](NC(=O)[C@H](CCCNC(=N)N)NC(=O)[C@H](CCCCN)NC(=O)[C@H](CC(C)C)NC(=O)[C@H](CCC(C)C)NC(=O)CN)C(=O)N[C@@H](CCCCN)C(=O)N[C@H](C(=O)N[C@@H](CC(C)C)C(=O)N[C@@H](CCC(C)C)C(N)=O)[C@@H](C)O` (H-G[hLeu]LKRIKTL[hLeu]-NH2), the MIC in data set [1] was 12.5 µM. The same compound returned an HC10 in data set [2] of 380 µM.

For `CC[C@H](C)[C@H](NC(=O)[C@H](CCCNC(=N)N)NC(=O)[C@H](CCCCN)NC(=O)[C@H](CCC(C)C)NC(=O)[C@H](CCC(C)C)NC(=O)CN)C(=O)N[C@@H](CCCCN)C(=O)N[C@H](C(=O)N[C@@H](CCC(C)C)C(=O)N[C@@H](CCC(C)C)C(N)=O)[C@@H](C)O` (H-G[hLeu][hLeu]KRIKT[hLeu][hLeu]-NH2), in data set [1], the MIC came to 12.5 µM. Moreover, the HC10 in data set [2] turned out to be 125 µM.

The values above are taken from ChEMBL document CHEMBL5608163, “Structure modification of anoplin for fighting resistant bacteria” (Eur J Med Chem, 2024).
